Source: US20090197279A1, “MICROTUBULE SYNTHESIS AS A BIOMARKER” (KINEMED, INC., priority 2005, published 2009)

Experiments:
[1] = test system: hippocampal tubulin dimers and tau-associated, tau-nonassociated (MAP2/STOP) and cold-stable microtubules; assay: 2H label incorporation into hippocampal tubulin dimers and microtubule fractions after ICVC infusion (2H2O labeling, GC/MS); format: in vivo, mouse; conditions: for label incorporation into new MAP2/STOP-MTs: vs water
Description: In (A) and (B), mice received ICVC infusions of 6 μl water alone or containing 0.48 nmol glutamate (80 μM in the infusate), or glutamate plus 0.66 pmol Rp-cAMP (110 nM in the infusate). Animals were then labeled with ^2H2O for 8 hours (A) or 24 hours (B). At sacrifice, the hippocampal post-nuclear supernatant was fractionated as show in FIG. 5A; a separate aliquot was used for isolation of cold stable (CS) MTs (FIG. 5D). Glutamate injection stimulated label incorporation into new MAP2/STOP-MTs at 8 and 24 hours, and CS MTs at 24 hours; both were blocked by Rp-cAMP. In order to correct the effects of pharmacologic intervention on MT dynamics for the confounding changes in tubulin synthesis, the numbers above each bar express ^2H label incorporation into MT as a percentage of ^2H labeling in the corresponding tubulin dimer fractions. (C) Dose dependence of glutamate effects. ^2H2O labeling was initiated at time zero, 6 μl ICVC infusions with the indicated concentrations of glutamate were performed at 24 hours, and labeling was continued until sacrifice at 48 hours (24 hours post glutamate infusion). Hippocampal MTs were fractionated into tau-associated, MAP2-associated, and non-associated (STOP-associated) MT fractions, as in FIG. 5A. In all experiments, bars represent % new tubulin (mean±SD, n=3).
Tubulin was purified using minor modifications of protocols described previously (Fanara, P., Oback, B., Ashman, K., Podtelejnikov, A., Brandt, R. Identification of MINUS, a small polypeptide that functions as a microtubule nucleation suppressor. EMBO J. 18, 565-577 (1999); Fanara, P. et al. In vivo measurement of microtubule dynamics using stable isotope labeling with heavy water. Effect of taxanes. J. Biol. Chem. 279, 49940-49947 (2004). Briefly, cultured neurons were gently scraped off culture plates, washed in phosphate-buffered saline (PBS), and homogenized in microtubule-stabilizing buffer. For purification ex vivo, mice were anesthetized with isoflurane and euthanized by cervical dislocation. Brains were rapidly removed and washed in microtubule-stabilizing buffer (MSB); hippocampi were dissected and gently homogenized in MSB. To separate cytosolic tubulin dimers from microtubule polymers, post-nuclear supernatants were centrifuged at 190,000×g at 20° C. for 35 min. The supernatant or non-microtubule fraction (containing the soluble dimeric tubulin) was separated from the pellet or microtubule fraction (containing polymeric tubulin), quick-frozen and stored at −20° C. Microtubule pellets were further fractionated by sequential immunoaffinity chromatography steps (FIG. 3). In order to isolate tau-associated microtubules, TAU5 antibody was covalently coupled to epoxy-activated Sepharose beads (Amersham Pharmacia Biotech) at a concentration of 0.25 mg/ml. Approximately 0.2 mg of the microtubule pellet was incubated with TAU-5 beads in 0.5 ml MSB for 1 hour at room temperature. Unbound material was removed, the beads were washed three times in 0.5 ml of MSB, and bound material was eluted in 0.5 ml MSB containing 1M NaCl. In some experiments, MAP2-associated microtubules were captured from the TAU5-unbound material by immunoaffinity chromatography on epoxy-activated Sepharose beads coupled to MAP2 antibody (0.5 mg antibody per ml beads) using the same protocol. The relative abundance of tubulin in each preparation (Tubulin dimers and TAU5-bound, MAP2-bound, and unbound microtubule fractions) was quantified by Western blot, and tubulin from these fractions was further purified by ion exchange and size exclusion chromatography, as previously described (Fanara, P. et al. In vivo measurement of microtubule dynamics using stable isotope labeling with heavy water. Effect of taxanes. J. Biol. Chem. 279, 49940-49947 (2004)). […]

microtubule polymer = assay: Total abundance of microtubule polymer by Western blotting after CFC; format: in vivo, mouse; conditions: conditioned mice, nocodazole 0.2 mg/kg; data not shown
From the text: Tubulin was purified using minor modifications of protocols described previously (Fanara, P., Oback, B., Ashman, K., Podtelejnikov, A., Brandt, R. Identification of MINUS, a small polypeptide that functions as a microtubule nucleation suppressor. EMBO J. 18, 565-577 (1999); Fanara, P. et al. In vivo measurement of microtubule dynamics using stable isotope labeling with heavy water. Effect of taxanes. J. Biol. Chem. 279, 49940-49947 (2004). Briefly, cultured neurons were gently scraped off culture plates, washed in phosphate-buffered saline (PBS), and homogenized in microtubule-stabilizing buffer. […] The relative abundance of tubulin in each preparation (Tubulin dimers and TAU5-bound, MAP2-bound, and unbound microtubule fractions) was quantified by Western blot, and tubulin from these fractions was further purified by ion exchange and size exclusion chromatography, as previously described (Fanara, P. et al. In vivo measurement of microtubule dynamics using stable isotope labeling with heavy water. Effect of taxanes. J. Biol. Chem. 279, 49940-49947 (2004)).
To test the role of microtubule/tubulin exchange in hippocampus-dependent memory, we treated animals with nocodazole (0.2 mg/kg), a microtubule-depolymerizing agent, four hours prior to CFC training (FIG. 10A). […] The total abundance of microtubule polymer, as detected by Western blotting, was decreased as well (data not shown).

[2] = dose-dependence experiment, 24 hours post stimulation

Row | Structure (SMILES) | label incorporation into new MAP2/STOP-MTs ([1]; 0.48 nmol glutamate ICVC, 2H2O labeling 8 hours) | label incorporation into new MAP2/STOP-MTs ([1]; 0.48 nmol glutamate ICVC, 2H2O labeling 24 hours) | fractional synthesis of tubulin dimers ([1]; 0.48 nmol glutamate ICVC, 8 and 24 hours labeling, vs controls) | tau-nonassociated microtubules exchanged with free tubulin ([1]; 0.48 nmol glutamate ICVC, 8 hours) | labeling of cold-stable (axonal shaft) microtubules ([1]; 0.48 nmol glutamate ICVC, 8 hours, vs controls) | tau-nonassociated microtubules exchanged with free tubulin ([1]; 0.48 nmol glutamate ICVC, 24 hours) | cold-stable microtubules equilibrated with free tubulin ([1]; 0.48 nmol glutamate ICVC, 24 hours, MT label as percentage of tubulin dimer label) | label incorporation into cold stable (CS) MTs ([1]; 0.48 nmol glutamate ICVC, 24 hours, vs controls) | label incorporation into cold stable (CS) MTs ([1]; 0.48 nmol glutamate ICVC, 24 hours, vs controls, listed as Glutamate) | exchange of tau-associated microtubules with tubulin dimers ([1]; 8 hours after stimulation with glutamate) | dynamics of tau-associated microtubules ([1]; 24 hours after stimulation with glutamate, vs controls) | fractional tubulin synthesis ([1]; dose-dependence experiment: 2H2O started 24 hours before varying amounts of glutamate, sacrifice 24 hours post infusion) | decreased label incorporation in tau-associated microtubules [1, 2] | increased tubulin incorporation into dendritic and axonal shaft microtubules [1, 2] | total abundance of microtubule polymer (Western blotting) (microtubule polymer)
1 | N[C@@H](CCC(=O)[O-])C(=O)[O-].[K+].[K+] [glutamate, potassium L-glutamate] | stimulated | stimulated | somewhat enhanced | ca. 80% | indistinguishable from controls | ca. 80% | about 40% | increased | stimulated | highly exchanged | less dynamic than controls | at most slight effects | glutamate-dose dependent | glutamate-dose dependent | –
2 | COC(=O)Nc1nc2ccc(C(=O)c3cccs3)cc2[nH]1 [nocodazole] | – | – | – | – | – | – | – | – | – | – | – | – | – | – | decreased
